Experimental data: patent publication US11529361B2, “Halogenated salicylanilides for treating Clostridium infections” (UNION therapeutics A/S, priority 2015, dated 2022)
Values after ≈ are worked out from the molar mass of the structure shown. Read-outs that look alike come from different tables or passages of the source.

Experiments:
[1] = system: 24 clinical isolate strains of C. difficile; assay: Additional MIC determinations, antibacterial activity by OD600 (Example 3); format: cell-based, Clostridium difficile
rats = settings: p.o.; cited from earlier work
[2] = system: C. difficile clinical isolates; assay: MIC determination by microbroth dilution per CLSI guideline (Example 1); format: cell-based, Clostridium difficile; settings: Clostridioides difficile
C. difficile = settings: published data (footnote a); cited from earlier work
[3] = system: Clostridium difficile 7-6011209; format: cell-based
[4] = system: Clostridium difficile infection (CDAD); settings: phase III clinical trials, versus vancomycin; cited from earlier work
cats = settings: p.o.; cited from earlier work
[5] = cited from earlier work
mice = settings: p.o.; cited from earlier work
[6] = via the urinary tract or by enzymatic metabolism in the liver; cited from earlier work

Cc1cc(C(C#N)c2ccc(Cl)cc2)c(Cl)cc1NC(=O)c1cc(I)cc(I)c1O (stereo not shown) [Closantel]
MIC ([1]; strain 7-5085357 (ST028)): 0.016 µg/mL (≈ 0.0241 µM)
MIC ([1]; strain 7-6011209 (ST002)): 0.016 µg/mL (≈ 0.0241 µM)
MIC ([1]; strain 7-6778909 (ST016)): 0.031 µg/mL (≈ 0.0468 µM)
MIC ([1]; strain 7-6854508 (ST013)): 0.25 µg/mL (≈ 0.377 µM)
MIC ([1]; strain 7-6870430 (ST001)): 0.031 µg/mL (≈ 0.0468 µM)
MIC ([1]; strain 7-7104022 (ST103)): 0.25 µg/mL (≈ 0.377 µM)
MIC ([1]; strain 7-7116411 (ST005)): 0.25 µg/mL (≈ 0.377 µM)
MIC ([1]; strain 7-7124449 (ST009)): 0.25 µg/mL (≈ 0.377 µM)
MIC ([1]; strain 7-7149204 (ST006)): 0.31 µg/mL (≈ 0.468 µM)
MIC ([1]; strain 7-7150288 (ST003)): 0.031 µg/mL (≈ 0.0468 µM)
MIC ([1]; strain 7-7150318 (ST059)): 0.63 µg/mL (≈ 0.95 µM)
MIC ([1]; strain 7-7150628 (ST034)): 0.063 µg/mL (≈ 0.095 µM)
MIC ([1]; strain 7-7150997 (ST049)): 0.016 µg/mL (≈ 0.0241 µM)
MIC ([1]; strain 7-7154992 (ST139)): 0.063 µg/mL (≈ 0.095 µM)
MIC ([1]; strain 7-7200552 (ST017)): 0.5 µg/mL (≈ 0.754 µM)
MIC ([1]; strain 12055): 0.063 µg/mL (≈ 0.095 µM)
MIC ([1]; strain 12060): 0.125 µg/mL (≈ 0.189 µM)
MIC ([1]; strain 12061): 0.063 µg/mL (≈ 0.095 µM)
MIC ([1]; strain 12062): 0.063 µg/mL (≈ 0.095 µM)
MIC ([1]; strain 12063): 0.031 µg/mL (≈ 0.0468 µM)
MIC ([1]; strain 12064): 0.031 µg/mL (≈ 0.0468 µM)
MIC ([1]; strain 12065): 0.063 µg/mL (≈ 0.095 µM)
MIC ([1]; strain 12066): 0.5 µg/mL (≈ 0.754 µM)
LD50 (rats): 262 to 342 mg/kg
MIC ([2]; Table 3, strain 7-6011209, read-out: C. difficile Strain 7-6011209 MIC): 0.125 µg/mL (≈ 0.189 µM)
MIC ([2]; Table 3, strain 12055, read-out: C. difficile Strain 12055 MIC): 0.125 µg/mL (≈ 0.189 µM)

CCc1c(Cl)c(O)c(Cl)c(O)c1C(=O)O[C@H]1[C@H](O)[C@H](OC)[C@H](OC/C2=C\C=C\C[C@H](O)/C(C)=C/[C@H](CC)[C@@H](O[C@@H]3OC(C)(C)[C@@H](OC(=O)C(C)C)[C@H](O)[C@@H]3O)/C(C)=C/C(C)=C/C[C@@H]([C@@H](C)O)OC2=O)O[C@@H]1C [Fidaxomycin]
MIC ([1]; strain 7-5085357 (ST028)): < 0.008 µg/mL
MIC ([1]; strain 7-6011209 (ST002)): < 0.008 µg/mL
MIC ([1]; strain 7-6778909 (ST016)): < 0.008 µg/mL
MIC ([1]; strain 7-6854508 (ST013)): < 0.008 µg/mL
MIC ([1]; strain 7-6870430 (ST001)): 0.016 µg/mL (≈ 0.0151 µM)
MIC ([1]; strain 7-7104022 (ST103)): < 0.008 µg/mL
MIC ([1]; strain 7-7116411 (ST005)): 2 µg/mL (≈ 1.89 µM)
MIC ([1]; strain 7-7124449 (ST009)): < 0.008 µg/mL
MIC ([1]; strain 7-7149204 (ST006)): < 0.008 µg/mL
MIC ([1]; strain 7-7150288 (ST003)): < 0.008 µg/mL
MIC ([1]; strain 7-7150318 (ST059)): < 0.008 µg/mL
MIC ([1]; strain 7-7150628 (ST034)): < 0.008 µg/mL
MIC ([1]; strain 7-7150997 (ST049)): < 0.008 µg/mL
MIC ([1]; strain 7-7154992 (ST139)): < 0.008 µg/mL
MIC ([1]; strain 7-7200552 (ST017)): < 0.008 µg/mL
MIC ([1]; strain 7-7363761 (ST008)): < 0.008 µg/mL
MIC ([1]; strain 12055): < 0.008 µg/mL
MIC ([1]; strain 12060): < 0.008 µg/mL
MIC ([1]; strain 12061): < 0.008 µg/mL
MIC ([1]; strain 12062): < 0.008 µg/mL
MIC ([1]; strain 12063): < 0.008 µg/mL
MIC ([1]; strain 12064): < 0.008 µg/mL
MIC ([1]; strain 12065): < 0.008 µg/mL
MIC ([1]; strain 12066): < 0.008 µg/mL
Highest MIC observed (C. difficile): 1 ^ μg/mL
MIC90 (C. difficile): 0.5^a μg/mL
formation of heat-resistant spores over time [3]: suppressed formation of spores for the first 48 hours of the study
clinical cure of CDAD [4]: non-inferior to vancomycin
preventing recurrence of CDAD [4]: superior to vancomycin

O=C(Nc1ccc(Br)cc1)c1cc(Br)cc(Br)c1O [Tribromsalan, 3,4′,5-tribromosalicylanilide]
MIC ([1]; strain 7-5085357 (ST028)): 0.016 µg/mL (≈ 0.0356 µM)
MIC ([1]; strain 7-6011209 (ST002)): < 0.008 µg/mL
MIC ([1]; strain 7-6778909 (ST016)): < 0.008 µg/mL
MIC ([1]; strain 7-6854508 (ST013)): 0.031 µg/mL (≈ 0.0689 µM)
MIC ([1]; strain 7-6870430 (ST001)): 0.016 µg/mL (≈ 0.0356 µM)
MIC ([1]; strain 7-7104022 (ST103)): 1 µg/mL (≈ 2.22 µM)
MIC ([1]; strain 7-7116411 (ST005)): < 0.008 µg/mL
MIC ([1]; strain 7-7124449 (ST009)): 0.063 µg/mL (≈ 0.14 µM)
MIC ([1]; strain 7-7149204 (ST006)): < 0.008 µg/mL
MIC ([1]; strain 7-7150288 (ST003)): < 0.008 µg/mL
MIC ([1]; strain 7-7150318 (ST059)): < 0.008 µg/mL
MIC ([1]; strain 7-7150628 (ST034)): 0.031 µg/mL (≈ 0.0689 µM)
MIC ([1]; strain 7-7150997 (ST049)): 0.16 µg/mL (≈ 0.356 µM)
MIC ([1]; strain 7-7154992 (ST139)): 0.063 µg/mL (≈ 0.14 µM)
MIC ([1]; strain 7-7200552 (ST017)): 0.25 µg/mL (≈ 0.556 µM)
MIC ([1]; strain 12055): 0.016 µg/mL (≈ 0.0356 µM)
MIC ([1]; strain 12060): 0.063 µg/mL (≈ 0.14 µM)
MIC ([1]; strain 12061): 0.016 µg/mL (≈ 0.0356 µM)
MIC ([1]; strain 12062): < 0.008 µg/mL
MIC ([1]; strain 12063): 0.016 µg/mL (≈ 0.0356 µM)
MIC ([1]; strain 12064): < 0.008 µg/mL
MIC ([1]; strain 12065): 0.016 µg/mL (≈ 0.0356 µM)
MIC ([1]; strain 12066): 0.031 µg/mL (≈ 0.0689 µM)
MIC ([2]; read-out: C. difficile Strain 7-6011209 MIC): 0.125 µg/mL (≈ 0.278 µM)
MIC ([2]; read-out: C. difficile Strain 12055 MIC): 0.25 µg/mL (≈ 0.556 µM)

O=C(Nc1ccc([N+](=O)[O-])cc1Cl)c1cc(Cl)ccc1O [Niclosamide, 2′,5-dichloro-4′-nitrosalicylanilide]
LD50 (cats): > 1000 mg/kg
solubility in water [5]: poorly soluble in water
LD50 (mice): > 5000 mg/kg
clearance from the bloodstream [6]: quickly cleared
MIC ([2]; isolate 7-5085357, read-out: MIC of clinical isolates of C. difficile): 0.125 µg/mL
MIC ([2]; isolate 7-5779928, read-out: MIC of clinical isolates of C. difficile): 0.25 µg/mL
MIC ([2]; isolate 7-6008526, read-out: MIC of clinical isolates of C. difficile): 0.25 µg/mL
MIC ([2]; isolate 7-6011209, read-out: MIC of clinical isolates of C. difficile): 0.06 µg/mL
MIC ([2]; isolate 7-6778909, read-out: MIC of clinical isolates of C. difficile): 0.25 µg/mL
MIC ([2]; isolate 7-6854508, read-out: MIC of clinical isolates of C. difficile): 0.125 µg/mL
MIC ([2]; isolate 7-6870430, read-out: MIC of clinical isolates of C. difficile): 0.25 µg/mL
MIC ([2]; isolate 7-7104022, read-out: MIC of clinical isolates of C. difficile): 0.125 µg/mL
MIC ([2]; isolate 7-7116411, read-out: MIC of clinical isolates of C. difficile): 0.125 µg/mL
MIC ([2]; isolate 7-7124449, read-out: MIC of clinical isolates of C. difficile): 0.125 µg/mL
MIC ([2]; isolate 7-7149204, read-out: MIC of clinical isolates of C. difficile): 0.125 µg/mL
MIC ([2]; isolate 7-7150288, read-out: MIC of clinical isolates of C. difficile): 0.125 µg/mL
MIC ([2]; isolate 7-7150318, read-out: MIC of clinical isolates of C. difficile): 0.125 µg/mL
MIC ([2]; isolate 7-7150628, read-out: MIC of clinical isolates of C. difficile): 0.125 µg/mL
MIC ([2]; isolate 7-7150997, read-out: MIC of clinical isolates of C. difficile): 0.125 µg/mL
MIC ([2]; isolate 7-7151551, read-out: MIC of clinical isolates of C. difficile): 0.25 µg/mL
MIC ([2]; isolate 7-7152701, read-out: MIC of clinical isolates of C. difficile): 0.25 µg/mL
MIC ([2]; isolate 7-7153872, read-out: MIC of clinical isolates of C. difficile): 0.5 µg/mL
MIC ([2]; isolate 7-7154712 (listed twice), read-out: MIC of clinical isolates of C. difficile): 0.25 µg/mL
MIC ([2]; isolate 7-7154992, read-out: MIC of clinical isolates of C. difficile): 0.25 µg/mL
MIC ([2]; isolate 7-7156197, read-out: MIC of clinical isolates of C. difficile): 0.25 µg/mL
MIC ([2]; isolate 7-7200552, read-out: MIC of clinical isolates of C. difficile): 0.25 µg/mL
MIC ([2]; isolate 7-7363761, read-out: MIC of clinical isolates of C. difficile): 0.125 µg/mL
MIC ([2]; isolate 12055, read-out: MIC of clinical isolates of C. difficile): 0.125 µg/mL
MIC ([2]; isolate 12060, read-out: MIC of clinical isolates of C. difficile): 0.125 µg/mL
MIC ([2]; isolate 12061, read-out: MIC of clinical isolates of C. difficile): 0.06 µg/mL
MIC ([2]; isolate 12062, read-out: MIC of clinical isolates of C. difficile): 0.06 µg/mL
MIC ([2]; isolate 12063, read-out: MIC of clinical isolates of C. difficile): 0.06 µg/mL
MIC ([2]; isolate 12064, read-out: MIC of clinical isolates of C. difficile): 0.06 µg/mL
MIC ([2]; niclosamide, matches Table 2, read-out: Highest MIC observed): 0.5 µg/mL (≈ 1.53 µM)
MIC90 ([2]; footnote b: data from tables herein): 0.06 to 0.25 µg/mL (≈ 0.183 to 0.764 µM)
